Among the data in US11203613B2, “Peptidomimetic proteasome inhibitors” (CORNELL UNIVERSITY, priority 2017, dated 2021) are IC50 values, retold here.

The structures appear in SMILES notation. Where only a bound is given, the exact number is not on record here.

This experiment concerns the target Human Constitutive (Hu C-20S) β5 Active Subunit (Homo sapiens, UniProt P28074). Briefly: IC50 determination, human constitutive 20S proteasome β5c (suc-LLVY-AMC hydrolysis). The class given is biochemical. As to conditions: Table 3; IC50 against human constitutive β5 active subunit; read-out: Hu-C20S β5.
For `C[C@H](NC(=O)[C@H](CC(=O)N1CCCC[C@@H]1C)NC(=O)[C@H]1C[C@@H]1c1ccccc1)c1nc2c(F)cccc2[nH]1` [CEN-55, (1S,2S)—N—((S)-1-(((S)-1-(4-Fluoro-1H-benzo[d]Imidazol-2-yl)ethyl)amino)-4-((S)-2-methylpiperidin-1-yl)-1,4-dioxobutan-2-yl)-2-phenylcyclopropane-1-carboxamide], the IC50 came out at 12.3 µM.

On to `C[C@H](NC(=O)[C@H](CC(=O)N1CCCC[C@@H]1C)NC(=O)N(C)Cc1ccccc1)c1nc2c(F)cccc2[nH]1` [CEN-56, (S)-2-(3-Benzyl-3-methylureido)-N—((S)-1-(4-fluoro-1H-benzo[d]imidazol-2-yl)ethyl)-4-((S)-2-methylpiperidin-1-yl)-4-oxobutanamide], for which the IC50 worked out at 17.2 µM.

For the compound `C[C@H](NC(=O)[C@H](CC(=O)N1CCCC[C@@H]1C)NC(=O)C1CC2(C1)CC(F)(F)C2)c1nc2c(F)cccc2[nH]1` [CEN-57, 6,6-Difluoro-N—((S)-1-(((S)-1-(4-fluoro-1H-benzo[d]imidazol-2-yl)ethyl)amino)-4-((S)-2-methylpiperidin-1-yl)-1,4-dioxobutan-2-yl)spiro[3.3]heptane-2-carboxamide], the IC50 was 28 µM.

On to `CC(C)CCS(=O)(=O)N[C@@H](CC(=O)N1CCC[C@@H]1c1ccccc1)C(=O)NC(C)c1nc2ccccc2[nH]1` (stereo partly drawn) [CEN-58, (2S)—N-(1-(1H-Benzo[d]imidazol-2-yl)ethyl)-2-((3-methylbutyl)sulfonamido)-4-oxo-4-((R)-2-phenylpyrrolidin-1-yl)butanamide], for which the IC50 was determined as 13.9 µM.

`CC(C)CCS(=O)(=O)N[C@@H](CC(=O)N1CCC[C@@H]1c1ccccc1)C(=O)N[C@@H](C)c1nc2ccccc2[nH]1` [CEN-59, (S)—N—((S)-1-(1H-Benzo[d]imidazol-2-yl)ethyl)-2-((3-methylbutyl)sulfonamido)-4-oxo-4-((R)-2-phenylpyrrolidin-1-yl)butanamide]: the IC50 was found to be 10 µM.

For the compound `CC(C)CCS(=O)(=O)N[C@@H](CC(=O)N1CCC[C@@H]1c1ccccc1)C(=O)N[C@H](C)c1nc2ccccc2[nH]1` [CEN-60, (S)—N—((R)-1-(1H-Benzo[d]imidazol-2-yl)ethyl)-2-((3-methylbutyl)sulfonamido)-4-oxo-4-((R)-2-phenylpyrrolidin-1-yl)butanamide], the IC50 came out at 10.7 µM.

Turning to `C[C@H](NC(=O)[C@H](CC(=O)N1CCCC1C1CC1)NC(=O)C1CC2(C1)CC(F)(F)C2)c1nc2cccc(F)c2[nH]1` (stereo partly drawn) [CEN-61, N-((2S)-4-(2-Cyclopropylpyrrolidin-1-yl)-1-(((S)-1-(7-fluoro-1H-benzo[d]imidazol-2-yl)ethyl)amino)-1,4-dioxobutan-2-yl)-6,6-difluorospiro[3.3]heptane-2-carboxamide], the IC50 worked out at 8.8 µM.

As for `C[C@H](NC(=O)[C@H](CC(=O)N1CCC[C@H]1c1ccccc1)NC(=O)C1CC2(COC2)C1)c1nc2cccc(F)c2[nH]1` [CEN-63, N—((S)-1-(((S)-1-(7-Fluoro-1H-benzo[d]imidazol-2-yl)ethyl)amino)-1,4-dioxo-4-((S)-2-phenylpyrrolidin-1-yl)butan-2-yl)-2-oxaspiro[3.3]heptane-6-carboxamide], the IC50 amounted to 6.8 µM.

On to `O=C(N[C@@H](CC(=O)N1CCCC1C1CC1)C(=O)NC1(c2nc3cccc(F)c3[nH]2)CC1)C1CC2(C1)CC(F)(F)C2` (stereo partly drawn) [CEN-64, N-((2S)-4-(2-Cyclopropylpyrrolidin-1-yl)-1-((1-(7-fluoro-1H-benzo[d]imidazol-2-yl)cyclopropyl)amino)-1,4-dioxobutan-2-yl)-6,6-difluorospiro[3.3]heptane-2-carboxamide], for which the IC50 worked out at 2.4 µM.

As to `C[C@H](NC(=O)[C@H](CC(=O)N1CCC[C@@H]1c1ccccc1)NC(=O)CCCC(F)(F)F)c1nc2ccccc2n1C` [CEN-65, 5,5,5-Trifluoro-N—((S)-1-(((S)-1-(1-methyl-1H-benzo[d]imidazol-2-yl)ethyl)amino)-1,4-dioxo-4-((R)-2-phenylpyrrolidin-1-yl)butan-2-yl)pentanamide], the IC50 was above 100 µM.

For the compound `C[C@H](NC(=O)[C@H](CC(=O)N1CCC[C@@H]1c1ccccc1)NC(=O)CCCC(F)(F)F)c1nc2ccccc2o1` [CEN-66, N—((S)-1-(((S)-1-(Benzo[d]oxazol-2-yl)ethyl)amino)-1,4-dioxo-4-((R)-2-phenylpyrrolidin-1-yl)butan-2-yl)-5,5,5-trifluoropentanamide], the IC50 was above 100 µM.

Regarding `C[C@H](NC(=O)[C@H](CC(=O)N1CCC[C@@H]1c1ccccc1)NC(=O)CCCC(F)(F)F)c1nc2ccccc2s1` [CEN-67, N—((S)-1-(((S)-1-(Benzo[d]thiazol-2-yl)ethyl)amino)-1,4-dioxo-4-((R)-2-phenylpyrrolidin-1-yl)butan-2-yl)-5,5,5-trifluoropentanamide], the IC50 is above 100 µM.

With `C[C@H](NC(=O)[C@H](CC(=O)N1CCC[C@@H]1c1ccccc1)NC(=O)C1CC2(C1)CC(F)(F)C2)c1nc2ccccc2o1` [CEN-68, N—((S)-1-(((S)-1-(Benzo[d]oxazol-2-yl)ethyl)amino)-1,4-dioxo-4-((R)-2-phenylpyrrolidin-1-yl)butan-2-yl)-6,6-difluorospiro[3.3]heptane-2-carboxamide], the IC50 was above 100 µM.

On to `Cc1ccc(S(=O)(=O)N[C@@H](CC(=O)NC(C)(C)C)C(=O)NC2(c3nc4c(F)cccc4[nH]3)CC2)cc1` [CEN-69, (S)—N^4-(tert-Butyl)-N^1-(1-(4-fluoro-1H-benzo[d]Imidazol-2-yl)cyclopropyl)-2-((4-methylphenyl)sulfonamido)succinamide], for which the IC50 was above 100 µM.

With `Cc1ccc(S(=O)(=O)N[C@@H](CCC(=O)NC(C)(C)C)C(=O)NC2(c3nc4c(F)cccc4[nH]3)CC2)cc1` [CEN-70, (S)—N^5-(tert-Butyl)-N^1-(1-(4-fluoro-1H-benzo[d]Imidazol-2-yl)cyclopropyl)-2-((4-methylphenyl)sulfonamido)pentanediamide], the IC50 was above 100 µM.

As to `Cc1ccc(S(=O)(=O)N[C@H](C(=O)N[C@@H](C)c2nc3cccc(F)c3[nH]2)[C@@H](C)O)cc1` [CEN-71, (2S,3R)—N—((S)-1-(7-Fluoro-1H-benzo[d]imidazol-2-yl)ethyl)-3-hydroxy-2-((4-methylphenyl)sulfonamido)butanamide], the IC50 was above 100 µM.

`C[C@H](NC(=O)[C@@H](NC(=O)CCc1ccc(F)cc1)[C@@H](C)O)c1nc2c(F)cccc2[nH]1` [CEN-72, (2S,3R)—N—((S)-1-(4-Fluoro-1H-benzo[d]imidazol-2-yl)ethyl)-2-(3-(4-fluorophenyl)propanamido)-3-hydroxybutanamide]: the IC50 is above 100 µM.

On to `CC(C)(C)NC(=O)CC[C@H](NC(=O)CCc1ccc(F)cc1)C(=O)NC1(c2nc3cccc(F)c3[nH]2)CC1` [CEN-73, (S)—N5-(tert-Butyl)-N1-(1-(7-fluoro-1H-benzo[d]Imidazol-2-yl)cyclopropyl)-2-(3-(4-fluorophenyl)propanamido)pentanediamide], for which the IC50 was above 100 µM.

As to `C[C@H](NC(=O)[C@@H](N)CC(=O)N1CCC[C@@H]1c1ccccc1)c1ncc(-c2ccccc2F)[nH]1` [CEN-74, (S)-2-Amino-N—((S)-1-(5-(2-fluorophenyl)-1H-imidazol-2-yl)ethyl)-4-oxo-4-((R)-2-phenylpyrrolidin-1-yl)butanamide], the IC50 turned out to be 94 µM.

For the compound `Cc1cc(C(=O)N[C@@H](CC(=O)N2CCC[C@@H]2c2ccccc2)C(=O)N[C@@H](C)c2ncc(-c3ccccc3F)[nH]2)no1` [CEN-75, N—((S)-1-(((S)-1-(5-(2-Fluorophenyl)-1H-imidazol-2-yl)ethyl)amino)-1,4-dioxo-4-((R)-2-phenylpyrrolidin-1-yl)butan-2-yl)-5-methylisoxazole-3-carboxamide], the IC50 was above 100 µM.

For the compound `C[C@H](NC(=O)[C@@H](N)CC(=O)N1CCCC[C@@H]1C)c1ncc(-c2ccc(F)cc2F)[nH]1` [CEN-76, (S)-2-Amino-N—((S)-1-(5-(2,4-difluorophenyl)-1H-imidazol-2-yl)ethyl)-4-((S)-2-methylpiperidin-1-yl)-4-oxobutanamide], the IC50 amounted to 14.2 µM.

For the compound `CC(C)CCC(=O)N[C@@H](CC(=O)N1CCCC1)C(=O)N[C@@H](C)c1ncc(-c2ccc(F)cc2F)[nH]1` [CEN-77, N—((S)-1-(((S)-1-(5-(2,4-Difluorophenyl)-1H-imidazol-2-yl)ethyl)amino)-1,4-dioxo-4-(pyrrolidin-1-yl)butan-2-yl)-4-methylpentanamide], the IC50 was found to be 10.4 µM.

`CC(C)CCC(=O)N[C@@H](CC(=O)N(C)C(C)C)C(=O)N[C@@H](C)c1ncc(-c2ccc(F)cc2F)[nH]1` [CEN-78, (S)—N1-((S)-1-(5-(2,4-Difluorophenyl)-1H-imidazol-2-yl)ethyl)-N4-isopropyl-N4-methyl-2-(4-methylpentanamido)succinamide]: the IC50 is 14.9 µM.

With `CCN(CC)C(=O)C[C@H](NC(=O)CCC(C)C)C(=O)N[C@@H](C)c1ncc(-c2ccc(F)cc2F)[nH]1` [CEN-79, (S)—N1-((S)-1-(5-(2,4-Difluorophenyl)-1H-imidazol-2-yl)ethyl)-N4,N4-diethyl-2-(4-methylpentanamido)succinamide], the IC50 was determined as 7.3 µM.

With `Cc1cc(C(=O)N[C@@H](CC(=O)N2CCCC2)C(=O)N[C@@H](C)c2ncc(-c3ccc(F)cc3F)[nH]2)no1` [CEN-80, N—((S)-1-(((S)-1-(5-(2,4-Difluorophenyl)-1H-imidazol-2-yl)ethyl)amino)-1,4-dioxo-4-(pyrrolidin-1-yl)butan-2-yl)-5-methylisoxazole-3-carboxamide], the IC50 was determined as 16.7 µM.

Turning to `C[C@H](NC(=O)[C@H](CC(=O)N1CCCC[C@@H]1C)NC(=O)CC1CC1)c1ncc(-c2ccc(F)cc2F)[nH]1` [CEN-81, (S)-2-(2-Cyclopropylacetamido)-N—((S)-1-(5-(2,4-difluorophenyl)-1H-imidazol-2-yl)ethyl)-4-((S)-2-methylpiperidin-1-yl)-4-oxobutanamide], the IC50 was 10.5 µM.

On to `C[C@H](NC(=O)[C@H](CC(=O)N1CCCC[C@@H]1C)NC(=O)C1CCC1)c1ncc(-c2ccc(F)cc2F)[nH]1` [CEN-82, N—((S)-1-(((S)-1-(5-(2,4-Difluorophenyl)-1H-imidazol-2-yl)ethyl)amino)-4-((S)-2-methylpiperidin-1-yl)-1,4-dioxobutan-2-yl)cyclobutanecarboxamide], for which the IC50 is 2.4 µM.
